Measured values: patent US20230295140A1, “INHIBITORS OF VAP-1” (Acucela Inc., priority 2021, published 2023)
Where a name gives a salt, the structure may show the parent alone.

Experiments:
Assay type in all cases: biochemical
rhMAO-A = rhMAO-A (Homo sapiens (Human), UniProt P21397); assay: MAO-Glo assay, MAO-A inhibition
Method: (§1) The capability of compounds described herein to inhibit MAO was determined using a modified Promega MAO-Glo™ assay kit. The substrate ((4S)-4,5-dihydro-2-(6-hydroxybenzothiazolyl)-4-thiazolecarboxylic acid) was converted by MAO to produce methyl ester luciferin. The luciferin was then converted by luciferase to produce oxyluciferin and light. The light was measured using a luminescence setting on the plate reader. A standard curve was prepared by serially diluting luciferin in reaction buffer. The standard kit reaction buffer was used—100 mM HEPES (pH 7.5), 5% glycerol. The substrate was dispensed into the wells so that the final concentration for MAO-A inhibition assay would be 10 μM and MAO-B inhibition assay would be […]. Inhibitors were diluted in DMSO to 4× and distributed to the appropriate wells. Clorgyline and Deprenyl served as positive controls. rhMAO-A and rhMAO-B were purchased from Sigma. MAO-A or MAO-B was added to the appropriate wells. The plate was incubated for 1 hour, at room temperature with gentle shaking (90 rpm). The detection agent was added at equal volume (48 μL detection agent to 48 μL reaction). The plate was incubated for 20 minutes, at room temperature with gentle shaking (90 rpm). The plate luminescence was read. Data processing was performed using Prism software.
(§2) The capability of compounds described herein to inhibit MAO was determined using a modified Promega MAO-Glo™ assay. Test compounds, substrate and enzyme were incubated per manufacturer instructions for 1 hour, at room temperature with gentle shaking (90 rpm) before addition of detection agent. The detection agent was added at equal volume (48 μL detection agent to 48 μL reaction). The plate was incubated for 20 minutes, at room temperature with gentle shaking (90 rpm). The plate luminescence was read. Data processing was performed using Prism software.

rhMAO-B = rhMAO-B (Homo sapiens (Human), UniProt P27338); assay: MAO-Glo assay, MAO-B inhibition; conditions: class symbols, ranges defined in μM
Method: as §1, §2

rhVAP-1 = rhVAP-1 (Homo sapiens (Human), UniProt Q16853); assay: VAP-1 fluorometric assay (Amplex Red/HRP, benzylamine substrate); conditions: class symbols, ranges defined in μM
Method: The capability of compounds described herein to inhibit the enzymatic activity of vascular adhesion protein-1 (VAP-1) was determined by fluorometric assay. The assay procedure provided by R&D Systems was modified slightly for use as an inhibitor screening assay. The assay measured the H2O2 generated from the oxidative deamination of benzylamine by rhVAP-1 by converting Amplex® Red to the fluorescent product, resorufin, via horseradish peroxidase (HRP) and H2O2. Reaction buffer was 10 mM NaHCO3, pH 7.4. A standard curve was prepared by serially diluting H2O2 in reaction buffer. A 10 μM solution of resorufin was prepared in reaction buffer and was dispensed to 2 wells. These wells served as positive control for maximum fluorescence. Reaction buffer was added to the individual wells so that the final volume in each well was 100 μL. Amplex Red was diluted to 1 mM in reaction buffer. A 10 U stock of HRP was prepared in reaction buffer. A reaction cocktail was prepared by mixing equal parts 1 mM Amplex Red with 10 U HRP with 3 parts reaction buffers. The reaction cocktail was added to the appropriate wells, so that that final concentration in the well was 0.05 mM Amplex Red and 0.5 U HRP. A 200 μM solution of benzylamine was prepared in reaction buffer. Benzylamine was added to the appropriate wells so that the final concentration was 50 μM. Inhibitors were diluted in DMSO to 20× and distributed to the appropriate wells. LJP-1207 served a positive control. rhVAP-1 was purchased from R&D Systems. The concentration used for each lot was determined so that the activity was equal to the first lot. Two wells were left blank as controls. The plate was incubated for 30 minutes at 37° C., protected from light under foil. The plate was read at 530/35 emission and 590/35 excitation. Data processing was performed using Excel and Prism software.
The capability of compounds described herein to inhibit the enzymatic activity of vascular adhesion protein-1 (VAP-1) was determined by fluorometric assay. The assay procedure provided by R&D Systems was modified slightly for use as an inhibitor screening assay. The assay measured the H2O2 generated from the oxidative deamination of benzylamine by rhVAP-1 by converting Amplex® Red to the fluorescent product, resorufin, via horseradish peroxidase (HRP) and H2O2. Amplex Red, HRP, Benzylamine, inhibitors (with DMSO as vehicle, 0.5% v/v) and rhVAP-1 were added to the wells. Assay was conducted in 10 mM NaHCO3, pH 7.4. A standard curve was prepared by serially diluting H2O2 in reaction buffer. The plate was incubated for 30 minutes at 37° C., protected from light under foil. The plate was read at 530/35 emission and 590/35 excitation. Data processing was performed using Prism software.

[1] = class symbols, ranges defined in μM

Chain of rhMAO-A (P21397 whole entry): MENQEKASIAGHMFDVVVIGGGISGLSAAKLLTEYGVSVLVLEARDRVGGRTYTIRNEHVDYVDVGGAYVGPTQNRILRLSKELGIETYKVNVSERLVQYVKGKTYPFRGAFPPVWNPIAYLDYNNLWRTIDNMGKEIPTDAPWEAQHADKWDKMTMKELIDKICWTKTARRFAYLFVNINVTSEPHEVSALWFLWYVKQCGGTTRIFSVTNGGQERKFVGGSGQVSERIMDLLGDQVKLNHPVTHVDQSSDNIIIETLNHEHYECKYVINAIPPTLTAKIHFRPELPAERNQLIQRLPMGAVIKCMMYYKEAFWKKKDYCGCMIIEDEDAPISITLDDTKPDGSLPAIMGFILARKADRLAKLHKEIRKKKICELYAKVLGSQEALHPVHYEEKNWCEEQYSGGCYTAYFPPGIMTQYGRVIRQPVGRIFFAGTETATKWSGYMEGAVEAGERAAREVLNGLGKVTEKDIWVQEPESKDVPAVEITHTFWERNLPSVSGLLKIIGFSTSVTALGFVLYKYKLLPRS
Chain of rhMAO-B (P27338 whole entry): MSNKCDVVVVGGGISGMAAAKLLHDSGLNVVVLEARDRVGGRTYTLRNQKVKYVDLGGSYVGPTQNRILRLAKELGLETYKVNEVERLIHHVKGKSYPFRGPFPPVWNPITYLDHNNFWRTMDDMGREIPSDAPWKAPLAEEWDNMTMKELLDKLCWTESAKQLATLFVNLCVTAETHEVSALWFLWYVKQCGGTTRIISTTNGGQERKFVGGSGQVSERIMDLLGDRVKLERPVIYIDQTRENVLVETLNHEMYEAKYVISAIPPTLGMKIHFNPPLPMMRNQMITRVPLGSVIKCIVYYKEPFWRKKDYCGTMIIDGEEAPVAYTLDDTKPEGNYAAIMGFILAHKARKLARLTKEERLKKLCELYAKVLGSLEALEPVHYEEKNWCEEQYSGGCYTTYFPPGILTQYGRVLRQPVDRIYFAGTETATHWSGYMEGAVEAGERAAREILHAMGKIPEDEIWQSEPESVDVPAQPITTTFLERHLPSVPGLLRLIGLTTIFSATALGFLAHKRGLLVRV
Chain of rhVAP-1 (Q16853 whole entry): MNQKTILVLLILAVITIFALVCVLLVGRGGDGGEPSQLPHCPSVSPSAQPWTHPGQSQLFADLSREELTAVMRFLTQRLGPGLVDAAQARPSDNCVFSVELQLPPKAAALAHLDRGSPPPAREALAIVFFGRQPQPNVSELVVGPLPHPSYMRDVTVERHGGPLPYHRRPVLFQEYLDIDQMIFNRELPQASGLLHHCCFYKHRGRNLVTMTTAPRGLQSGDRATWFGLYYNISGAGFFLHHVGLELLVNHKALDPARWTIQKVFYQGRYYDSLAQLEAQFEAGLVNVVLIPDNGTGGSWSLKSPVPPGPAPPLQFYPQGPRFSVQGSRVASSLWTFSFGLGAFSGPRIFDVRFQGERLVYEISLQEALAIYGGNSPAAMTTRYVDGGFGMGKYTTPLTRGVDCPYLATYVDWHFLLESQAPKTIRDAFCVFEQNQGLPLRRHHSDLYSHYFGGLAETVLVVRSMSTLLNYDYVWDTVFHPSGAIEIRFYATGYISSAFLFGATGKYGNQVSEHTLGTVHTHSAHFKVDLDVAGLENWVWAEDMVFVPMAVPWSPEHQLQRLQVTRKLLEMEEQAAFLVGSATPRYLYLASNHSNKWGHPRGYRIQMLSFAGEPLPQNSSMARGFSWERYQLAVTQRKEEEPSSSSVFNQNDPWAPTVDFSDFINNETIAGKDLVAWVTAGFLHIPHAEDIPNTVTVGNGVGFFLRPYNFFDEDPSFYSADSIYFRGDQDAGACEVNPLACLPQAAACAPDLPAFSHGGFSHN

## NC/C(=C\F)COc1ccc2nc(NCCc3ccccc3)oc2c1 [Example 45, (E)-6-((2-(aminomethyl)-3-fluoroallyl)oxy)-N-phenethylbenzo[d]oxazol-2-amine 4-methylbenzenesulfonate]
rhMAO-A; [1]
  IC50: 10 to 30 µM
rhMAO-B
  IC50: 0.1 to 1 µM
rhVAP-1
  IC50: < 0.1 µM

## CCCNc1nc2ccc(OC/C(=C/F)CN)c(F)c2o1 [Example 6, (E)-6-((2-(aminomethyl)-3-fluoroallyl)oxy)-7-fluoro-N-propylbenzo[d]oxazol-2-amine]
rhMAO-A; [1]
  IC50: 10 to 30 µM
rhMAO-B
  IC50: 0.1 to 1 µM
rhVAP-1
  IC50: < 0.1 µM

## CCCCc1nc2ccc(OC/C(=C\F)CN)c(F)c2s1 [Example 15, (Z)-2-(((2-butyl-7-fluorobenzo[d]thiazol-6-yl)oxy)methyl)-3-fluoroprop-2-en-1-amine 4-methylbenzenesulfonate]
rhMAO-B
  IC50: < 0.1 µM
rhVAP-1
  IC50: < 0.1 µM

## CC1CN(c2nc3ccc(OC/C(=C/F)CN)cc3o2)C1 [Example 33, (E)-3-fluoro-2-(((2-(3-methylazetidin-1-yl)benzo[d]oxazol-6-yl)oxy)methyl)prop-2-en-1-amine 4-methylbenzenesulfonate]
rhMAO-A; [1]
  IC50: 10 to 30 µM
rhMAO-B
  IC50: 0.1 to 1 µM
rhVAP-1
  IC50: < 0.1 µM

## CCCCc1nc2ccc(OC/C(=C\F)CN)cc2n1C [Example 73, (Z)-2-(((2-Butyl-1-methyl-1H-benzo[d]imidazol-6-yl)oxy)methyl)-3-fluoroprop-2-en-1-amine 4-methylbenzenesulfonate]
rhMAO-A; [1]
  IC50: 1 to 10 µM
rhMAO-B
  IC50: 1 to 10 µM
rhVAP-1
  IC50: < 0.1 µM

## NC/C(=C\F)COc1ccc2nc(NCCCO)oc2c1 [Example 70, (E)-3-((6-((2-(aminomethyl)-3-fluoroallyl)oxy)benzo[d]oxazol-2-yl)amino)propan-1-ol 4-methylbenzenesulfonate]
rhMAO-A; [1]
  IC50: 1 to 10 µM
rhMAO-B
  IC50: 1 to 10 µM
rhVAP-1
  IC50: < 0.1 µM

## CCCN(C)c1nc2ccc(OC/C(=C/F)CN)cc2o1 [Example 46, (E)-6-((2-(aminomethyl)-3-fluoroallyl)oxy)-N-methyl-N-propylbenzo[d]oxazol-2-amine 4-methylbenzenesulfonate]
rhMAO-A; [1]
  IC50: 1 to 10 µM
rhMAO-B
  IC50: 1 to 10 µM
rhVAP-1
  IC50: < 0.1 µM

## CC(C)(C)CNc1nc2ccc(OC/C(=C/F)CN)cc2o1 [Example 59, (E)-6-((2-(aminomethyl)-3-fluoroallyl)oxy)-N-neopentylbenzo[d]oxazol-2-amine (4-methylbenzenesulfonate)]
rhMAO-A; [1]
  IC50: 1 to 10 µM
rhMAO-B
  IC50: 1 to 10 µM
rhVAP-1
  IC50: 1 to 10 µM

## Cc1cc(CNc2nc3ccc(OC/C(=C/F)CN)cc3o2)cc(C)n1 [Example 91, (E)-6-((2-(Aminomethyl)-3-fluoroallyl)oxy)-N-((2,6-dimethylpyridin-4-yl)methyl)benzo[d]oxazol-2-amine trihydrochloride]
rhMAO-A; bound printed in cell
  IC50: > 50 µM
rhMAO-B
  IC50: 1 to 10 µM
rhVAP-1
  IC50: < 0.1 µM

## CCCCc1nc2ccc(OCCC(=CF)CN)cc2o1 [Example 38, 4-((2-butylbenzo[d]oxazol-6-yl)oxy)-2-(fluoromethylene)butan-1-amine 4-methylbenzenesulfonate]
rhMAO-A; [1]
  IC50: 0.1 to 1 µM
rhMAO-B
  IC50: < 0.1 µM
rhVAP-1
  IC50: < 0.1 µM

## CCCCc1nc2ccc(CCC(=CF)CN)cc2o1 [Example 52, 4-(2-butylbenzo[d]oxazol-6-yl)-2-(fluoromethylene)butan-1-amine 4-methylbenzenesulfonate]
rhVAP-1
  IC50: < 0.1 µM

## CCCCc1nc2ccc(/C=C(/F)CN)cc2o1 [Example 95, (E)-3-(2-butylbenzo[d]oxazol-6-yl)-2-fluoroprop-2-en-1-amine]
rhVAP-1
  IC50: 0.1 to 1 µM

## C=C(CN)C(F)(F)Oc1ccc2nc(CCCC)oc2c1 [Example 29, 2-(((2-butylbenzo[d]oxazol-6-yl)oxy)difluoromethyl)prop-2-en-1-amine hydrochloride]
rhVAP-1
  IC50: 0.1 to 1 µM

## CCCCc1nc2ccc(OC/C(F)=C\CN)cc2o1 [Example 16, (E)-4-((2-butylbenzo[d]oxazol-6-yl)oxy)-3-fluorobut-2-en-1-amine]
rhVAP-1
  IC50: 0.1 to 1 µM
